{"source": "patent US9669054B2", "about": "“pH buffered bioactive glass, and its preparation process and use” (CHANGZHOU BIO-SHENG TECHNOLOGY CO., LTD., priority 2011, dated 2017)", "type_in_all_cases": "in vivo", "key": {"[1]": {"test_system": "acetic-acid induced chronic gastric ulcers", "test": "Treatment of acetic-acid induced chronic gastric ulcers in rats", "protocol": "After fasting for 24 hours, the rats were anesthetized and disinfected in a conventional way, and then was cut from the xiphoid down along the medioventral line to about 2 cm, so as to remove the stomach from the enterocoelia; 5 μl of 100% glacial acetic acid was injected by using a microsyringe into a position close to the muscular layer below the anterior wall serosa of the gastric antrum; when a translucent white spot with a diameter of about 3 mm appeared, the stomach was given back to the enterocoelia, and was enveloped in omentum majus; then, peritoneum, muscular layer and skin were sutured in this order.\nEach drug was divided into 5 groups according to the administration method described above, namely, a model group and four groups with different doses of drugs. Each group of the drugs was administered to 6 to 8 […]. At the third day after the surgery, the treatment started by intragastrically administering drugs to the rats once a day for 7 days, wherein normal saline was administered in the same volume to the rats in the model group instead. […] The following indices were measured:\n(1) ulcer index: the longest diameter in the length direction of an ulcer area and the longest diameter in the width direction perpendicular to the longest diameter in the length direction of the ulcer area were measured by a vernier caliper, and the product of the above two diameters is the ulcer index.\n(2) ulcer inhibition rate: it represents the inhibition effect of a drug on the ulcer index."}, "[2]": {"test_system": "mouse stress-induced gastric ulcers", "test": "Comparative experiment on inhibition of stress-induced gastric ulcers versus representative drugs", "conditions": "mice, intragastric, stress in water 15 hours", "quoted_text": "The mice were divided into four groups, to which deionized water (the solvent control group), and three kinds of Weibeisheng with pH 7, 8 and 9 at a dose of 1 g/kg were respectively intragastrically administrated. Two hours later, the mice were subjected to stress in water at 21±1° C. for 15 hours, and were administered again two hours before the end of the stress. Then the animals were killed and autopsy was performed. […]\nTwo hours later, the mice were subjected to stress in water at 21±1° C. for 15 hours (the drug was administered to the Weibeisheng group again two hours before the end of stress). […] After the ulcer index of each group was scored, the inhibition effect of each drug on mouse stress-induced gastric ulcers (namely, the maximum inhibition rate Emax) was calculated.\nThe ratios used in these two Experiment Examples were determined according to the weight of the mouse and the amount of intragastric administration."}, "[3]": {"test_system": "IL-1β-induced recurrence of acetic-acid induced chronic gastric ulcers", "test": "Prevention of IL-1β-induced recurrence of acetic-acid induced chronic gastric ulcers in rats", "conditions": "10 mg/kg/d intragastric for 7 days before IL-1β", "protocol": "In this study and experiment, we evaluated the preventive effect of the tested drug (namely, the bioactive glass) on the recurrence of chronic gastric ulcers by adopting the rat model of IL-1β-induced recurrence of acetic-acid induced chronic gastric ulcer, and using omeprazole as the control.\nThe model of acetic-acid induced chronic gastric ulcer was first copied here: After fasting for 24 hours, the rats were anesthetized and disinfected in a conventional way, and then was cut from the xiphoid down along the medioventral line to about 2 cm, so as to remove the stomach from the enterocoelia; 5 μl of 100% glacial acetic acid was injected by using a microsyringe into a position close to the muscular layer below the anterior wall serosa of the gastric antrum; when a translucent white spot with a diameter of about 3 mm appeared, the stomach was given back to the enterocoelia, and was enveloped in omentum majus; then, peritoneum, muscular layer and skin were sutured in this order. 90 days after the injection of acetic acid, a model of gastric ulcer recurrence was copied by intraperitoneal injection of 1 μg/kg of IL-1β according to the method described in “Role of neutrophils in a rat model of gastric ulcer recurrence caused by interleukin-1 beta”, T. Watanabe, T. Arakawa, T. Fukuda, K. Higuchi, and K. Kobayashi, Am J Pathol, 1997, 150:971-979 . […]"}}, "data": [{"smiles": "COc1ccc2[nH]c([S+]([O-])Cc3ncc(C)c(OC)c3C)nc2c1", "note": "(centres unmarked) [Omeprazole, omeprazole]", "values": [{"measurement": "ED50", "setting": "[1]; Rattus norvegicus, po, 168 h, rats, intragastric once a day for 7 days, ulcer inhibition rate, read-out: ED50 (median effective dose)", "result": 1.3, "unit": "mg/kg"}, {"measurement": "median effective dose ED50 for treating chronic gastric ulcers", "setting": "[1]; chronic gastric ulcers, as stated in summary/description", "result": 1.3, "unit": "mg/kg/day"}, {"measurement": "Emax (maximum inhibition rate)", "setting": "[1]; rats, intragastric once a day for 7 days", "result": "66.2 ± 7.4", "unit": "%"}, {"measurement": "Emax (% inhibition rate)", "setting": "[2]", "result": 64.8, "unit": "% inhibition rate"}, {"measurement": "preventive effect on the recurrence of chronic gastric ulcers (inhibition rate)", "setting": "[3]", "result": 50, "unit": "%"}]}]}
